Results as given in ChEMBL document CHEMBL1132842, “Novel antifungals based on 4-substituted imidazole: solid-phase synthesis of substituted aryl sulfonamides towards optimization of in vitro activity” (Bioorg Med Chem Lett, 2000).
In brackets after ≈: the same amount, converted by molar mass.

Assays:
[1] = test system: Saccharomyces cerevisiae; assay: Concentration required to inhibit 65% growth of selected sets of Yeasts; format: functional
[2] = test system: mold; assay: Concentration required to inhibit growth of pathogenic molds; format: functional
[3] = test system: Microsporum canis; assay: Minimum concentration required to inhibit the growth of […] canis; format: functional
[4] = test system: Candida tropicalis; assay: Minimum concentration required to inhibit the growth of Candida tropicalis; format: functional
[5] = test system: Cryptococcus neoformans; assay: Minimum concentration required to inhibit the growth of Cryptococcus neoformans; format: functional
[6] = test system: Sporothrix schenckii; assay: Minimum concentration required to inhibit the growth of Sporothrix schenck ii; format: functional
[7] = test system: Trichophyton rubrum; assay: Minimum concentration required to inhibit the growth of Trichophyton rubrum; format: functional
[8] = test system: Candida albicans; assay: Minimum concentration required to inhibit the growth of Candida albicans 4; format: functional
[9] = test system: Candida parapsilosis; assay: Minimum concentration required to inhibit the growth of Candida parapsilosis; format: functional; conditions: Lodderomyces parapsilosis
[10] = test system: Pichia kudriavzevii; assay: Minimum concentration required to inhibit the growth of Candida krusei; format: functional
[11] = test system: Candida albicans; assay: Minimum concentration required to inhibit the growth of Candida albicans 2; format: functional
[12] = test system: Candida albicans; assay: Minimum concentration required to inhibit the growth of Candida albicans 1; format: functional
[13] = test system: Trichophyton benhamiae; assay: Minimum concentration required to inhibit the growth of Trichophyton mentagrophytes; format: functional, Arthroderma benhamiae
[14] = test system: Nakaseomyces glabratus; assay: Minimum concentration required to inhibit the growth of Candida glabrata; format: functional
[15] = test system: Aspergillus fumigatus; assay: Minimum concentration required to inhibit the growth of Aspergillus fumigatus; format: functional
[16] = test system: Kluyveromyces marxianus; assay: Minimum concentration required to inhibit the growth of Candida kefyr; format: functional
[17] = test system: Saccharomyces cerevisiae; assay: Concentration required to inhibit 65% growth of Yeast strains; format: functional

## O=S(=O)(c1ccc(CNCCc2ccc(Cl)cc2Cl)cc1)N(CCc1ccc(F)cc1)Cc1c[nH]cn1
[1]
  pLADY: 6.1
[2]
  pLADM: 4.4

## CCC(C)n1ncn(-c2ccc(N3CCN(c4ccc(OCC5COC(Cn6cncn6)(c6ccc(Cl)cc6Cl)O5)cc4)CC3)cc2)c1=O (stereo not drawn) [ITRACONAZOLE]
[3]
  MIC: ≤ 0.1 µM
[4]
  MIC: 0.1 µM (≈ 0.0706 µg/mL)
[5]
  MIC: ≤ 0.1 µM
[6]
  MIC: 10 µM (≈ 7.06 µg/mL)
[7]
  MIC: ≤ 0.1 µM
[8]
  MIC: > 10 µM
[9]
  MIC: ≤ 0.1 µM
[10]
  MIC: 1 µM (≈ 0.706 µg/mL)
[11]
  MIC: ≤ 0.1 µM
[12]
  MIC: > 10 µM
[13]
  MIC: 0.1 µM (≈ 0.0706 µg/mL)
[14]
  MIC: 1 µM (≈ 0.706 µg/mL)
[15]
  MIC: 1 µM (≈ 0.706 µg/mL)
[16]
  MIC: ≤ 0.1 µM

## C[C@@H](c1ncncc1F)[C@](O)(Cn1cncn1)c1ccc(F)cc1F [VORICONAZOLE]
[3]
  MIC: 1 µM (≈ 0.349 µg/mL)
[4]
  MIC: 1 µM (≈ 0.349 µg/mL)
[5]
  MIC: 1 µM (≈ 0.349 µg/mL)
[6]
  MIC: > 10 µM
[7]
  MIC: ≤ 0.1 µM
[9]
  MIC: ≤ 0.1 µM
[10]
  MIC: 10 µM (≈ 3.49 µg/mL)
[11]
  MIC: ≤ 0.1 µM
[12]
  MIC: > 10 µM
[13]
  MIC: ≤ 0.1 µM
[14]
  MIC: 10 µM (≈ 3.49 µg/mL)
[15]
  MIC: 1 µM (≈ 0.349 µg/mL)
[16]
  MIC: ≤ 0.1 µM

## O=S(=O)(c1ccc(N2CCCCC2)cc1)N(CCc1ccccc1F)Cc1c[nH]cn1
[1]
  pLADY: 5.9
[2]
  pLADM: 4.2

## CN(c1ccc(S(=O)(=O)N(Cc2c[nH]cn2)CC2CCCCC2)cc1)C1CCCCC1
[1]
  pLADY: 5.5
[2]
  pLADM: 4

## CCCCOc1ccc(S(=O)(=O)N(Cc2c[nH]cn2)C(CC)C2CCCCC2)cc1 (stereo not drawn)
[3]
  MIC: 1 µM (≈ 0.434 µg/mL)
[4]
  MIC: 1 µM (≈ 0.434 µg/mL)
[5]
  MIC: 1 µM (≈ 0.434 µg/mL)
[6]
  MIC: > 10 µM
[7]
  MIC: 1 µM (≈ 0.434 µg/mL)
[8]
  MIC: ≤ 0.1 µM
[9]
  MIC: ≤ 0.1 µM
[10]
  MIC: 1 µM (≈ 0.434 µg/mL)
[11]
  MIC: ≤ 0.1 µM
[12]
  MIC: > 10 µM
[13]
  MIC: 10 µM (≈ 4.34 µg/mL)
[14]
  MIC: 1 µM (≈ 0.434 µg/mL)
[15]
  MIC: > 10 µM
[16]
  MIC: ≤ 0.1 µM

## CC(C)C(C(C)C)N(Cc1c[nH]cn1)S(=O)(=O)c1ccc(N2CCN(c3ccc(F)cc3)CC2)cc1
[1]
  pLADY: 6.4
[2]
  pLADM: 4

## CCC(CC)Nc1ccc(S(=O)(=O)N(Cc2c[nH]cn2)C(C(C)C)C(C)C)cc1
[1]
  pLADY: 6.5
[2]
  pLADM: 4

## CC(C)C(C(C)C)N(Cc1c[nH]cn1)S(=O)(=O)c1ccc(-c2ccccc2)cc1
[1]
  pLADY: 6.6
[2]
  pLADM: 5.2

## CC(C)C(C(C)C)N(Cc1c[nH]cn1)S(=O)(=O)c1ccc(-c2ccc(F)cc2)cc1
[3]
  MIC: 1 µM (≈ 0.43 µg/mL)
[4]
  MIC: ≤ 0.1 µM
[5]
  MIC: ≤ 0.1 µM
[6]
  MIC: > 10 µM
[7]
  MIC: 1 µM (≈ 0.43 µg/mL)
[8]
  MIC: 1 µM (≈ 0.43 µg/mL)
[9]
  MIC: ≤ 0.1 µM
[10]
  MIC: 1 µM (≈ 0.43 µg/mL)
[2]
  pLADM: 5.2
[11]
  MIC: ≤ 0.1 µM
[12]
  MIC: > 10 µM
[13]
  MIC: 10 µM (≈ 4.3 µg/mL)
[14]
  MIC: 1 µM (≈ 0.43 µg/mL)
[15]
  MIC: 10 µM (≈ 4.3 µg/mL)
[16]
  MIC: ≤ 0.1 µM
[17]
  pLADY: 6.8

## O=S(=O)(c1ccc(-c2ccc(Cl)cc2)cc1)N(Cc1c[nH]cn1)CC1CCCCC1
[1]
  pLADY: 6.3
[2]
  pLADM: 4.4

## O=S(=O)(c1ccc(N2CCN(c3ccccn3)CC2)cc1)N(Cc1c[nH]cn1)CC1CCCCC1
[1]
  pLADY: 6.4
[2]
  pLADM: 4

## CN1CCN(c2ccc(S(=O)(=O)N(Cc3c[nH]cn3)CC3CCCCC3)cc2)CC1
[1]
  pLADY: 4.6
[2]
  pLADM: 4

## O=S(=O)(c1ccc(CN2CCN(c3ccccn3)CC2)cc1)N(Cc1c[nH]cn1)CC1CCCCC1
[1]
  pLADY: 6.4
[2]
  pLADM: 4

## O=S(=O)(c1ccc(N2CCN(c3cccc(C(F)(F)F)c3)CC2)cc1)N(Cc1c[nH]cn1)CC1CCCCC1
[1]
  pLADY: 6.3
[2]
  pLADM: 4

## O=S(=O)(c1ccc(-c2ccc(F)cc2)cc1)N(Cc1c[nH]cn1)C1CCCCC1
[1]
  pLADY: 5.8
[2]
  pLADM: 4.4

## O=S(=O)(c1ccc(N2CCN(c3ccccc3Cl)CC2)cc1)N(CCc1ccccc1F)Cc1c[nH]cn1
[1]
  pLADY: 6
[2]
  pLADM: 4.2
